Laboratory results from patent publication US20040258620A1, “(Ethylene)-( propylene)-triaminepentaacetic acid derivatives, process for their production, and their use for the production of pharmaceutical agents” (priority 2001, published 2004).
Read-outs that look alike come from different tables or passages of the source. Blank lines part the entries; values can stand above or below the molecule they belong to.

Tests used:
[1] = Simultaneous analysis of 17O NMR, EPR and NMRD data; details: for ΔH^‡ / ΔS^‡: water exchange; for kex^298: water exchange rate
Text: The ^17O NMR, NMRD and EPR experimental data (points) and the fitted curves (lines) as obtained in a simultaneous analysis, according to the method of Powell et al., J. Am. Chem. Soc.

[2] = IUPAC Stability constants. Academic Software and K. J. Powell, 1999; cited from earlier work
[3] = IUPAC Stability constants. Academic Software and K. J. Powell, 1999; cited from earlier work; remark: listed apart in the source
[4] = IUPAC Stability constants. Academic Software and K. J. Powell, 1999; cited from earlier work; remark: listed apart in the source
[5] = determined by potentiometry [Clarke and Martell, Inorg. Chim, Acta, 1991]; cited from earlier work
[6] = Protonation constants of the ligands by pH-potentiometry; assay type: physicochemical; details: protonation constant of the ligand; I=0.1M TMACI, t=25° C.
Text: (§1) Protonation constants of the two ligands, DPTPA and EPTPA-Bz-NO2, and stability constants of their complexes formed with Gd(III) and some endogenously available cations have been determined by pH-potentiometry. The selectivity of the ligand for Gd(III) over Zn(II) (log(KGdL/KZnL)) is especially important as it directly relates to the safety of the Gd(III) contrast agent.

[7] = Stability constants of the complexes formed with Zn(II) by pH-potentiometry; assay type: physicochemical; details: I=0.1M TMACI, t=25° C.
Text: as §1

[8] = Stability constants of the Ca complexes by pH-potentiometry; assay type: physicochemical
Text: as §1

[9] = Stability constants of the complexes formed with Gd(III) by pH-potentiometry; assay type: physicochemical; details: I=0.1M TMACI, t=25° C.
Text: as §1

A/ħ ([1]; Gd(III) complex of the ligand): −3.8 ± 0.2 10^6 rad s^−1
Ev ([1]; Gd(III) complex of the ligand): 0.382 ± 0.43 kcal/mol
Δ^2 ([1]; Gd(III) complex of the ligand): 0.46 ± 0.02 10^20 s^−1
τr ([1]; Gd(III) complex of the ligand): 58 ± 11 ps
τy ([1]; Gd(III) complex of the ligand): 25 ± 1 ps
Er ([1]; not told): 4.13 ± 0.19 kcal/mol
Structure (SMILES): O=C(O)CN(CCN(CC(=O)O)CC(=O)O)CCN(CC(=O)O)CC(=O)O [DTPA, diethylenetriamine-pentaacetic acid, reference compound]
ΔH^‡ ([1]; Gd(III) complex of the ligand): 12.3 ± 0.335 kcal/mol
ΔS^‡ ([1]; Gd(III) complex of the ligand): 53.0 ± 4.7 J mol^−1K^−1
kex^298 ([1]; Gd(III) complex of the ligand): 3.3 ± 0.2 10^6 s^−1
logKZnHL [2]: 3.0
logKZnL [2]: 18.3
logKCaHL [3]: 6.42
logKCaL [3]: 10.89
logKGdHL [4]: 1.80
logKGdL [4]: 22.50

Structure (SMILES): O=C([O-])CN1CCCN(CC(=O)[O-])CCN(CC(=O)[O-])CCN(CC(=O)[O-])CC1.[Gd+3] [Gd(III)(TRITA)]
thermodynamic stability constant, logβ [5]: 19.2

A/ħ ([1]; Gd(III) complex of the ligand): −3.5 ± 0.2 10^6 rad s^−1
Er ([1]; Gd(III) complex of the ligand): 4.76 ± 0.406 kcal/mol
Δ^2 ([1]; Gd(III) complex of the ligand): 0.37 ± 0.03 10^20 s^−1
τr ([1]; Gd(III) complex of the ligand): 84.6 ± 6 ps
τy ([1]; Gd(III) complex of the ligand): 20 ± 1 ps
pKa1 [6]: 10.86
pKa2 [6]: 8.94
pKa3 [6]: 4.70
pKa4 [6]: 3.25
pKa5 [6]: 2.51
logKZnH2L [7]: 2.53
logKZnHL [7]: 8.99
logKZnL ([7]; stability constant): 16.01
logKCaHL [8]: 7.04
logKCaL ([8]; stability constant): 10.02
logKGdH2L [9]: 2.40
logKGdHL [9]: 3.35
logKGdL ([9]; stability constant): 19.31
Structure (SMILES): O=C(O)CN(CCCN(CC(=O)O)CC(Cc1ccc([N+](=O)[O-])cc1)N(CC(=O)O)CC(=O)O)CC(=O)O (stereo not shown) [EPTPA-bz-NO2]
ΔH^‡ ([1]; Gd(III) complex of the ligand): 5.66 ± 0.43 kcal/mol
ΔS^‡ ([1]; Gd(III) complex of the ligand): −9.2 ± 4.0 J mol^−1K^−1
kex^298 ([1]; Gd(III) complex of the ligand): 146 ± 23 10^6 s^−1
